Assays:
[1] = target: ALK tyrosine kinase receptor (Homo sapiens, UniProt Q9UM73)
Description: Inhibition of human ALK kinase domain (1058 to 1620 residues) expressed in baculovirus expression system using biotin-poly-GT as substrate pre-incubated for 10 mins followed by ATP addition and measured after 60 mins by HTRF method

[2] = target: T1, High affinity nerve growth factor receptor (Homo sapiens, UniProt P04629); assay: Inhibition of N-terminal GST-tagged human TrkA kinase domain (436 to 790 residues) expressed in baculovirus expression system using biotin-poly-GT as substrate pre-incubated for 5 mins followed by ATP addition and measured after 60 mins by alpha screen assay
[3] = target: Aurora kinase B (Homo sapiens) (UniProt Q96GD4); assay: Inhibition of N-terminal His6-tagged AuroraB (unknown origin) expressed in baculovirus expression system at 100 nM using aurora peptide as substrate preincubated for 5 mins followed by [gamma-33P]ATP addition and measured after 60 mins by topcount scintillation counting method relative to control
[4] = target: cAMP-dependent protein kinase catalytic subunit alpha (Homo sapiens) (UniProt P17612); assay: Inhibition of PKA (unknown origin) expressed in Escherichia coli at 100 nM using PKA substrate peptide preincubated for 5 mins followed by [gamma-33P]ATP addition and measured after 10 mins by topcount scintillation counting method relative to control
[5] = target: T1, High affinity nerve growth factor receptor; assay: Inhibition of TRKA (unknown origin) at 100 nM by [gamma-33P]ATP-based radiometric or Alphascreen assay relative to control
[6] = target: Glycogen synthase kinase-3 beta (Homo sapiens) (UniProt P49841); assay: Inhibition of N-terminal FLAG-tagged GSK3beta (unknown origin) expressed in baculovirus expression system at 100 nM using pGS peptide as substrate preincubated for 5 mins followed by [gamma-33P]ATP addition and measured after 30 mins by topcount scintillation counting method relative to control
[7] = target: Vascular endothelial growth factor receptor 2 (Homo sapiens) (UniProt P35968); assay: Inhibition of N-terminal FLAG-tagged VEGFR2 (unknown origin) expressed in baculovirus expression system at 100 nM preincubated for 5 mins followed by ATP addition and measured after 10 mins by alphascreen assay relative to control
[8] = target: Mitogen-activated protein kinase kinase kinase 5 (Homo sapiens) (UniProt Q99683); assay: Inhibition of N-terminal FLAG-tagged ASK1 (unknown origin) expressed in baculovirus expression system at 100 nM using myelin basic protein as substrate preincubated for 5 mins followed by [gamma-33P]ATP addition and measured after 60 mins by topcount scintillation counting method relative to control
[9] = target: Epidermal growth factor receptor (Homo sapiens) (UniProt P00533); assay: Inhibition of human N-terminal DYKDDDD-tagged EGFR cytoplasmic domain (669 to 1210 residues) expressed in baculovirus expression system at 100 nM using poly-Glu-Tyr(4:1) as substrate preincubated for 5 mins followed by [gamma-33P]ATP addition and measured after 10 mins by topcount scintillation counting method relative to control
[10] = target: Ephrin type-A receptor 5 (Homo sapiens) (UniProt P54756); assay: Inhibition of EPHA5 (unknown origin) at 100 nM by [gamma-33P]ATP-based radiometric or Alphascreen assay relative to control
[11] = target: Phosphatidylinositol 4,5-bisphosphate 3-kinase catalytic subunit alpha isoform (Homo sapiens) (UniProt P42336); assay: Inhibition of PI3Kalpha (unknown origin) at 100 nM by [gamma-33P]ATP-based radiometric or Alphascreen assay relative to control
[12] = target: Proto-oncogene tyrosine-protein kinase Src (Homo sapiens) (UniProt P12931); assay: Inhibition of recombinant human full-length N-terminal His6-tagged SRC expressed in Sf21 insect cells at 100 nM preincubated for 5 mins followed by ATP addition and measured after 10 mins by alphascreen assay relative to control
[13] = target: Tyrosine-protein kinase JAK1 (Homo sapiens) (UniProt P23458); assay: Inhibition of JAK1 (unknown origin) at 100 nM by [gamma-33P]ATP-based radiometric or Alphascreen assay relative to control
[14] = target: Serine/threonine-protein kinase Chk1 (Homo sapiens) (UniProt O14757); assay: Inhibition of CHEK1 (unknown origin) at 100 nM by [gamma-33P]ATP-based radiometric or Alphascreen assay relative to control
[15] = Fraction unbound in ICR mouse brain at 1 umol/L measured for 16 to 20 hrs by equilibrium dialysis based LC-MS/MS analysis; type: ADME, tissue-based; details: 1 µM
[16] = Drug level in Jcl-ICR mouse plasma at 100 mg/kg, ip measured at 2 hr by LC/MS/MS analysis; type: ADME, organism-based
[17] = Drug level in Jcl-ICR mouse brain at 100 mg/kg, ip measured at 2 hr by LC/MS/MS analysis; type: ADME, organism-based; details: read-out: Drug uptake
Mus musculus = assay: In-vivo inhibition of ALK in ip dosed ICR mouse hippocampus assessed as reduction in phosphorylated ALK level after 1 hr by Western blot analysis; type: functional, organism-based

Chain of Mitogen-activated protein kinase kinase kinase 5 (Homo sapiens) (Q99683 whole entry, the tested form may be a part): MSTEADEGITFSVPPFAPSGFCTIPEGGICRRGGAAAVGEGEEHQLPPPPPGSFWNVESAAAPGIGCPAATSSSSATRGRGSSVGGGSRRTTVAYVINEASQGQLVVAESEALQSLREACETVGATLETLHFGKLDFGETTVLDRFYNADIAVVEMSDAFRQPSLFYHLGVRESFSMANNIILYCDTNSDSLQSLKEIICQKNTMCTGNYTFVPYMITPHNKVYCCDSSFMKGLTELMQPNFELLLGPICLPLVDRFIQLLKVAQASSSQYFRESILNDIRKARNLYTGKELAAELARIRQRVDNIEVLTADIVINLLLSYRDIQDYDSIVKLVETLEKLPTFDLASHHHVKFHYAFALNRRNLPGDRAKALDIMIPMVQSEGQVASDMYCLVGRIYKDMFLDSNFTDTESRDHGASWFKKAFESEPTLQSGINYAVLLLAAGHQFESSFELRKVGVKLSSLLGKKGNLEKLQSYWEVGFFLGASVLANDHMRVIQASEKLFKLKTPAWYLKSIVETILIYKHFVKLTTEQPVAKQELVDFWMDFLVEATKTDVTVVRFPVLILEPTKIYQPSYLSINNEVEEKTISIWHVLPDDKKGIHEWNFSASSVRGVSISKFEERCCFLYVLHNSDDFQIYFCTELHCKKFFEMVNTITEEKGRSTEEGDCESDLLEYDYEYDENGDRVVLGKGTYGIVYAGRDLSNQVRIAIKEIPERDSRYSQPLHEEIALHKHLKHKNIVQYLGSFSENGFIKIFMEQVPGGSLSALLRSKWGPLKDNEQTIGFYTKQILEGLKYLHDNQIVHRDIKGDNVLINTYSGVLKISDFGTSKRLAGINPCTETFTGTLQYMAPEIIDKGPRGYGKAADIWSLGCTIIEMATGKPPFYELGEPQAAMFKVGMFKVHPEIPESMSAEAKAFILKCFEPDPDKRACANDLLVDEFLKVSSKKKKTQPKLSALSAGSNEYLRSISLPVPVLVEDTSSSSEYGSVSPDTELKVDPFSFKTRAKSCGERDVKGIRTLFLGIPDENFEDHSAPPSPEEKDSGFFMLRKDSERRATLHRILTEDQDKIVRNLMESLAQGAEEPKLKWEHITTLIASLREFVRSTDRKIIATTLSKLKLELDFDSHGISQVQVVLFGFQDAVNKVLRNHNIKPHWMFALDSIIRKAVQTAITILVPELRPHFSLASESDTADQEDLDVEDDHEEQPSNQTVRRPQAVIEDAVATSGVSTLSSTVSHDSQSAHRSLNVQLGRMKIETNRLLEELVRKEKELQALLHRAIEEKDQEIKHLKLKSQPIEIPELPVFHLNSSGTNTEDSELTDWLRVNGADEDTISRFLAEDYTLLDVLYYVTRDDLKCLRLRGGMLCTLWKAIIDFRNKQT
Chain of Glycogen synthase kinase-3 beta (Homo sapiens) (P49841 whole entry, looked up): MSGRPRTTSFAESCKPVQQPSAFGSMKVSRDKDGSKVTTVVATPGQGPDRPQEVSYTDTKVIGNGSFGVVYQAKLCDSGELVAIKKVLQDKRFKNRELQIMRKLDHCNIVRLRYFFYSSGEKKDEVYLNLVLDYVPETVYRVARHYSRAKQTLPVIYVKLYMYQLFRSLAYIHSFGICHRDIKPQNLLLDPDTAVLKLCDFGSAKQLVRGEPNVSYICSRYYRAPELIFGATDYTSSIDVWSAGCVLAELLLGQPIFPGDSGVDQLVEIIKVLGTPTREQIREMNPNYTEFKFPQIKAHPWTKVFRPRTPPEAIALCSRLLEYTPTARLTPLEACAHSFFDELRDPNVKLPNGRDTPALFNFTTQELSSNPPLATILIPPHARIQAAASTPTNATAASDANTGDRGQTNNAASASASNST
Chain of Ephrin type-A receptor 5 (Homo sapiens) (P54756 whole entry, canonical isoform): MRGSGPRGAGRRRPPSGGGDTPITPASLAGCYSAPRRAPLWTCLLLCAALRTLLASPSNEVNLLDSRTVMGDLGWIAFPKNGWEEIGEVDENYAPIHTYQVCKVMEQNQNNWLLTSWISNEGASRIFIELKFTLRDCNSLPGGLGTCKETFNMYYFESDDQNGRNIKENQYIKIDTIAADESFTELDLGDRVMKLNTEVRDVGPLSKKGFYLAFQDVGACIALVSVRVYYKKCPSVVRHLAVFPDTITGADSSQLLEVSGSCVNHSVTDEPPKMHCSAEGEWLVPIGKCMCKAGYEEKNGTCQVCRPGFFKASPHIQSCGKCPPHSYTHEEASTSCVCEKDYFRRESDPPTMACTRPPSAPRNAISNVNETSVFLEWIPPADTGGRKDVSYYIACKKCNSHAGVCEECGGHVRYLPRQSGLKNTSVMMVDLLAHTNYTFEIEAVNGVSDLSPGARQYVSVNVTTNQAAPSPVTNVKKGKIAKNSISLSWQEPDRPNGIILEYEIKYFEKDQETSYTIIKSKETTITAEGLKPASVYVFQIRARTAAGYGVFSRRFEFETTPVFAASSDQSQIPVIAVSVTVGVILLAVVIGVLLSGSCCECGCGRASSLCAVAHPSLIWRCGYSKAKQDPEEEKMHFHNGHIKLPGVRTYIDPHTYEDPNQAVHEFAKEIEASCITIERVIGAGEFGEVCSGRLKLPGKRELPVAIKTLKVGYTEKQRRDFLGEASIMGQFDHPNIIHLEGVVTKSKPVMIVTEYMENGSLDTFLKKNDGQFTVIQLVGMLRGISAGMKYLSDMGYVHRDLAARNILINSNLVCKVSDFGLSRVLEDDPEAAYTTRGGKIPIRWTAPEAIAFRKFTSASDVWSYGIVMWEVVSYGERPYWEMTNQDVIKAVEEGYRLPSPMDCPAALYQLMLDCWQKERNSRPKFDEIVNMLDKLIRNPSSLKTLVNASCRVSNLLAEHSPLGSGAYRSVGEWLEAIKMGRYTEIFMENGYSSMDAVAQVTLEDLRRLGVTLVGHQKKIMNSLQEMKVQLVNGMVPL
Chain of ALK tyrosine kinase receptor (Q9UM73 whole entry, the tested form may be a part): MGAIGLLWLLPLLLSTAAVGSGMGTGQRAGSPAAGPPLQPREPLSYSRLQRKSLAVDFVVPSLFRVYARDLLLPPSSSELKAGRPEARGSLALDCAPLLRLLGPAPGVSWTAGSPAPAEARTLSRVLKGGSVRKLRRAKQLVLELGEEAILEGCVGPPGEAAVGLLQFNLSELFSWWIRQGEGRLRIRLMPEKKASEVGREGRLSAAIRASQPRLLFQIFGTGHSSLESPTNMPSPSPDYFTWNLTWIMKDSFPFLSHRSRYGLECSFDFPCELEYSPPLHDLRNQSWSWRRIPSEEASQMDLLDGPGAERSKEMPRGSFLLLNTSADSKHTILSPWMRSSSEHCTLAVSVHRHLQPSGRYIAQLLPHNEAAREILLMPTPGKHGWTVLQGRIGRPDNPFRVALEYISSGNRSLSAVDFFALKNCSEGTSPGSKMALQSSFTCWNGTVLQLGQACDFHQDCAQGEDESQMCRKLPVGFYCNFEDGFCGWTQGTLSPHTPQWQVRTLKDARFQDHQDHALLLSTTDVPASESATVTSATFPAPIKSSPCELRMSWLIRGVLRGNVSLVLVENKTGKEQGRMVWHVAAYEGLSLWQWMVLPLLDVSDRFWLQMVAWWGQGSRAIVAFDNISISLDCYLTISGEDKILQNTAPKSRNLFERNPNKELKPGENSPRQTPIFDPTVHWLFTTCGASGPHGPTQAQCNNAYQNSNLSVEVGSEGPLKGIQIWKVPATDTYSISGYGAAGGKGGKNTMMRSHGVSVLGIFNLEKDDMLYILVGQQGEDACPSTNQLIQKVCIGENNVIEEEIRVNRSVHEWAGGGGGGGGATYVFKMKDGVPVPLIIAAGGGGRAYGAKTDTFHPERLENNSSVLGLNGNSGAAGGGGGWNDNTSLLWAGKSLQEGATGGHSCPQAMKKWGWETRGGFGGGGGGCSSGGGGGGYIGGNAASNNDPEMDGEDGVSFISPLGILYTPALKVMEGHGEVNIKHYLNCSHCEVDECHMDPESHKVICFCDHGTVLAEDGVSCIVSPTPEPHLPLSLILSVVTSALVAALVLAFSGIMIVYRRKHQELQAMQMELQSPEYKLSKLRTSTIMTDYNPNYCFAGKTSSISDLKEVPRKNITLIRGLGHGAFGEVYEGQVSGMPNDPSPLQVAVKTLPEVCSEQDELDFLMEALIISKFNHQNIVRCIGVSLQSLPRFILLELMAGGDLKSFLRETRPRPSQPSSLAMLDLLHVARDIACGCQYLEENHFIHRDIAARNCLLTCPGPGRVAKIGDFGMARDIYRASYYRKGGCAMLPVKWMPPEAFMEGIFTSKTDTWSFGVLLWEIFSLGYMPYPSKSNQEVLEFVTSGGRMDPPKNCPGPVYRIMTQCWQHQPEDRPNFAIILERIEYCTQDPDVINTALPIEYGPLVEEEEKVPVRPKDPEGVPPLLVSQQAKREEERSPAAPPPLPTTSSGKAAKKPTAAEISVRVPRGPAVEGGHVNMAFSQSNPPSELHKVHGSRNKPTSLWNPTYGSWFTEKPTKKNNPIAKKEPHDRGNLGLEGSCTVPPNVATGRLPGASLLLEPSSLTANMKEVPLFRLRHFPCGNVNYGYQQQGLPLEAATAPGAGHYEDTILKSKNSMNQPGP
Chain of Serine/threonine-protein kinase Chk1 (Homo sapiens) (O14757 whole entry): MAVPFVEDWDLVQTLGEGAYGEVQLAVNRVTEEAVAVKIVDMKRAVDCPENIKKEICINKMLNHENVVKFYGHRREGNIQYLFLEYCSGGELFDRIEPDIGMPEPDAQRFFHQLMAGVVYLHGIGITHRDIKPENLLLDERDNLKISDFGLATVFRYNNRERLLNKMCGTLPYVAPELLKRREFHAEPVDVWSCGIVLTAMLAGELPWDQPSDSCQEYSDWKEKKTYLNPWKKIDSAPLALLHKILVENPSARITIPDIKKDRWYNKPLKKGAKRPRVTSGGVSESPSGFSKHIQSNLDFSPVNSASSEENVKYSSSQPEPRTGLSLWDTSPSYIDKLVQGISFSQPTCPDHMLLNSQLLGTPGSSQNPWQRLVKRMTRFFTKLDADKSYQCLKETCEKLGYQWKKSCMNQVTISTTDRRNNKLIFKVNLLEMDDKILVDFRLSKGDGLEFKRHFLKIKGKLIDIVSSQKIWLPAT

Which IC50 [1] does the source give for Cc1cc(-n2cc(C(=O)N3CCO[C@@H](C)C3)c3ccc(O[C@@H](C)c4ccc(F)cn4)nc32)n[nH]1 here?
Its IC50 is 2.9 nM.

What about the IC50 [2] of the same compound?
Its IC50 is 2600 nM.

What about the inhibition [3] of the same compound?
Its inhibition is 21%.

What about the inhibition [4] of the same compound?
The inhibition was 12%.

What about the inhibition [5] of the same compound?
The inhibition was 9%.

And the inhibition [6]?
Its inhibition is 3%.

What about the inhibition [7] of the same compound?
Its inhibition is 2%.

What about the inhibition [8] of the same compound?
The inhibition was -1%.

What about the inhibition [9] of the same compound?
The inhibition was -1%.

And the inhibition [10]?
Its inhibition is -2%.

And the inhibition [11]?
The inhibition was -2%.

What about the inhibition [12] of the same compound?
Its inhibition is -2%.

What about the inhibition [13] of the same compound?
Its inhibition is -8%.

What about the inhibition [14] of the same compound?
Its inhibition is -9%.

And the Fu [15]?
Its Fu is 0.017%.

And the concentration at 2 h [16]?
The concentration at 2 h was 11600 ng/mL.

And the concentration at 2 h [17]?
Its concentration at 2 h is 10300 ng/mL.

What about the inhibition (Mus musculus) of the same compound?
The inhibition was “Dose-dependent effect”.

Reference: ChEMBL document CHEMBL4396868, “Discovery of Potent, Selective, and Brain-Penetrant 1 H-Pyrazol-5-yl-1 H-pyrrolo[2,3- b]pyridines as Anaplastic Lymphoma Kinase (ALK) Inhibitors” (J Med Chem, 2019)
